Measurements published in patent publication US9623028B2, “Methods of treating a cancer using substituted pyrrolopyrimidine compounds, compositions thereof” (Signal Pharmaceuticals, LLC, priority 2014, dated 2017).

Tests used:
[1] = biological target: CLK1 (Homo sapiens (Human), UniProt P49759); test: biochemical; conditions: read-out: CLK1 (% Inh.), % inhibition at 3 μM
[2] = biological target: CLK2 (Homo sapiens (Human), UniProt P49760); test: biochemical; conditions: read-out: CLK2 (% Inh.), % inhibition at 3 μM
Chain of CLK2 (P49760 whole entry): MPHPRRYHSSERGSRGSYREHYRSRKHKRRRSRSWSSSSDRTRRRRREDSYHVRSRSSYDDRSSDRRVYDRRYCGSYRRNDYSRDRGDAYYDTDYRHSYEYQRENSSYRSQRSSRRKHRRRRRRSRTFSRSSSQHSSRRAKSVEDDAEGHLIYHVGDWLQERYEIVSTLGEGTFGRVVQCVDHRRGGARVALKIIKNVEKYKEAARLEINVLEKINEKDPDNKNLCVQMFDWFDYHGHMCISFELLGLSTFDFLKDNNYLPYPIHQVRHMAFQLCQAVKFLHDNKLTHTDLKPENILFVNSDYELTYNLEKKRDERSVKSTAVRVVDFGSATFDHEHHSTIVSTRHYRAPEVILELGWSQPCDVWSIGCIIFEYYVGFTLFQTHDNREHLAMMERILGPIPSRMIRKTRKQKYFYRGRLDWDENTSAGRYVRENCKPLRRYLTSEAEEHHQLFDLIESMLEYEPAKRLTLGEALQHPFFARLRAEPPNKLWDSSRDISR

Chain of CLK1 (P49759 whole entry): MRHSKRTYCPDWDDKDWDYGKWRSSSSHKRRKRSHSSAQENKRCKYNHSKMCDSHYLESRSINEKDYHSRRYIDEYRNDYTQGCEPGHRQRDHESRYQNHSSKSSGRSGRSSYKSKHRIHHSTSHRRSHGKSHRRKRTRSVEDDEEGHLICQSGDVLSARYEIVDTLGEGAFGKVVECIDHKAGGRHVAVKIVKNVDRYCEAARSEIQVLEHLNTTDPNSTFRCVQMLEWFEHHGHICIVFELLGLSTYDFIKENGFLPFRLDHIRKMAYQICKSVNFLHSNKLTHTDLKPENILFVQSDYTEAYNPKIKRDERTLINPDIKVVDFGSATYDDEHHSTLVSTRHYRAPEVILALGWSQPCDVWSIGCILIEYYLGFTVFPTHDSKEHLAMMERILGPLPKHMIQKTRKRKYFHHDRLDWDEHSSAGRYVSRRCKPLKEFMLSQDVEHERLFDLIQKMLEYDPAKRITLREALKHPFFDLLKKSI

Row | SMILES | inhibition at 3 µM [1] [%] | inhibition at 3 µM [2] [%]
1 | CNC(=O)c1ccc(Nc2nc(OC3CCOCC3)c3c(-c4cnn(C)c4)c[nH]c3n2)c(OC)c1 [Compound 184, 3-methoxy-N-methyl-4-(5-(1-methyl-1H-pyrazol-4-yl)-4-(tetrahydro-2H-pyran-4-yloxy)-7H-pyrrolo[2,3-d]pyrimidin-2-ylamino)benzamide] | 101 | 98
2 | Cc1cc(C(=O)N(C)C)ccc1Nc1nc(OC2CCOCC2)c2c(-c3ccnc(C#N)c3)c[nH]c2n1 [Compound 140, 4-(5-(2-cyanopyridin-4-yl)-4-(tetrahydro-2H-pyran-4-yloxy)-7H-pyrrolo[2,3-d]pyrimidin-2-ylamino)-N,N,3-trimethylbenzamide] | 97 | 103
3 | CNC(=O)c1ccc(Nc2nc(NC3CCCC3)c3c(-c4ccc(O)cc4)c[nH]c3n2)c(OC)c1 [Compound 16, 4-(4-(cyclopentylamino)-5-(4-hydroxyphenyl)-7H-pyrrolo[2,3-d]pyrimidin-2-ylamino)-3-methoxy-N-methylbenzamide] | 92 | 90
4 | CNC(=O)c1ccc(Nc2nc(OC3CCOCC3)c3c(-c4ccc5nc(C)n(C)c5c4)c[nH]c3n2)c(OC)c1 [Compound 148, 4-(5-(1,2-dimethyl-1H-benzo[d]imidazol-6-yl)-4-(tetrahydro-2H-pyran-4-yloxy)-7H-pyrrolo[2,3-d]pyrimidin-2-ylamino)-3-methoxy-N-methylbenzamide] | 99 | 106
5 | CNC(=O)c1ccc(Nc2nc(OC)c3c(-c4ccc(OC)nc4)c[nH]c3n2)c(OC)c1 [Compound 118, 3-methoxy-4-(4-methoxy-5-(6-methoxypyridin-3-yl)-7H-pyrrolo[2,3-d]pyrimidin-2-ylamino)-N-methylbenzamide] | 98 | 98
6 | CNC(=O)c1ccc(Nc2nc(OC3CCOCC3)c3c(-c4ccn(C)n4)c[nH]c3n2)c(OC)c1 [Compound 163, 3-methoxy-N-methyl-4-(5-(1-methyl-1H-pyrazol-3-yl)-4-(tetrahydro-2H-pyran-4-yloxy)-7H-pyrrolo[2,3-d]pyrimidin-2-ylamino)benzamide] | 100 | 102
7 | Cc1nc2ccc(-c3c[nH]c4nc(Nc5cn(C)nc5C)nc(OC5CCCC5)c34)cc2o1 [Compound 307, 4-(cyclopentyloxy)-N-(1,3-dimethyl-1H-pyrazol-4-yl)-5-(2-methylbenzo[d]oxazol-6-yl)-7H-pyrrolo[2,3-d]pyrimidin-2-amine] | 99 | 103
8 | Cc1nc2ccc(-c3c[nH]c4nc(Nc5cnn(C6CCOCC6)c5Cl)nc(OC5CCCC5)c34)cc2o1 [Compound 377, N-(5-chloro-1-(tetrahydro-2H-pyran-4-yl)-1H-pyrazol-4-yl)-4-(cyclopentyloxy)-5-(2-methylbenzo[d]oxazol-6-yl)-7H-pyrrolo[2,3-d]pyrimidin-2-amine] | 99 | 100
9 | COc1nc(Nc2ccc(C(=O)N(C)C)cc2Cl)nc2[nH]cc(-c3ccncc3)c12 [Compound 157, 3-chloro-4-(4-methoxy-5-(pyridin-4-yl)-7H-pyrrolo[2,3-d]pyrimidin-2-ylamino)-N,N-dimethylbenzamide] | 95 | 105
10 | CNC(=O)c1ccc(Nc2nc(OC3CCOCC3)c3c(-c4ccc(O)cc4)c[nH]c3n2)c(OC)c1 [Compound 17, 4-(5-(4-hydroxyphenyl)-4-(tetrahydro-2H-pyran-4-yloxy)-7H-pyrrolo[2,3-d]pyrimidin-2-ylamino)-3-methoxy-N-methylbenzamide] | 97 | 98
11 | COc1cc(C(=O)NCCO)ccc1Nc1nc(OC2CCOCC2)c2c(-c3ccc4nc(C)oc4c3)c[nH]c2n1 [Compound 213, N-(2-hydroxyethyl)-3-methoxy-4-(5-(2-methylbenzo[d]oxazol-6-yl)-4-(tetrahydro-2H-pyran-4-yloxy)-7H-pyrrolo[2,3-d]pyrimidin-2-ylamino)benzamide] | 99 | 100
12 | COc1cc(C(=O)NCCO)ccc1Nc1nc(OC(C)C)c2c(-c3ccc4nc(C)oc4c3)c[nH]c2n1 [Compound 160, N-(2-hydroxyethyl)-4-(4-isopropoxy-5-(2-methylbenzo[d]oxazol-6-yl)-7H-pyrrolo[2,3-d]pyrimidin-2-ylamino)-3-methoxybenzamide] | 98 | 108
13 | CNC(=O)c1ccc(Nc2nc(OC3CCCC3)c3c(-c4ccc(O)cc4)c[nH]c3n2)c(C(C)C)c1 [Compound 11, 4-(4-(cyclopentyloxy)-5-(4-hydroxyphenyl)-7H-pyrrolo[2,3-d]pyrimidin-2-ylamino)-3-isopropyl-N-methylbenzamide] | 95 | 94
14 | CNC(=O)c1ccc(Nc2nc(OC3CCC(C)(O)CC3)c3c(-c4ccc5nc(C)oc5c4)c[nH]c3n2)c(C)c1 (stereo not drawn) [Compound 150, 4-(4-((1r,4r)-4-hydroxy-4-methylcyclohexyloxy)-5-(2-methylbenzo[d]oxazol-6-yl)-7H-pyrrolo[2,3-d]pyrimidin-2-ylamino)-N,3-dimethylbenzamide] | 99 | 111
15 | CNC(=O)c1ccc(Nc2nc(OC3CCC(C)(O)CC3)c3c(-c4ccc5nc(C)oc5c4)c[nH]c3n2)c(OC)c1 (stereo not drawn) [Compound 205, 4-(4-((1r,4r)-4-hydroxy-4-methylcyclohexyloxy)-5-(2-methylbenzo[d]oxazol-6-yl)-7H-pyrrolo[2,3-d]pyrimidin-2-ylamino)-3-methoxy-N-methylbenzamide] | 99 | 103
16 | CCOc1ccc(-c2c[nH]c3nc(Nc4ccc(C(=O)NC)cc4C)nc(O[C@H]4CCOC4)c23)cn1 [Compound 162, (S)-4-(5-(6-ethoxypyridin-3-yl)-4-(tetrahydrofuran-3-yloxy)-7H-pyrrolo[2,3-d]pyrimidin-2-ylamino)-N,3-dimethylbenzamide] | 100 | 106
17 | CNC(=O)c1ccc(Nc2nc(OC3CCOCC3)c3c(-c4ccc(-c5nc(C)c(C)[nH]5)cc4)c[nH]c3n2)c(OC)c1 [Compound 197, 4-(5-(4-(4,5-dimethyl-1H-imidazol-2-yl)phenyl)-4-(tetrahydro-2H-pyran-4-yloxy)-7H-pyrrolo[2,3-d]pyrimidin-2-ylamino)-3-methoxy-N-methylbenzamide] | 100 | 103
18 | Cc1nc2ccc(-c3c[nH]c4nc(Nc5cnn(C)c5C)nc(OC5CCCC5)c34)cc2o1 [Compound 296, 4-(cyclopentyloxy)-N-(1,5-dimethyl-1H-pyrazol-4-yl)-5-(2-methylbenzo[d]oxazol-6-yl)-7H-pyrrolo[2,3-d]pyrimidin-2-amine] | 101 | 104
19 | Cc1nc2ccc(-c3c[nH]c4nc(Nc5ccc(C(=O)N(C)C)cc5C)nc(O[C@H]5CCOC5)c34)cc2o1 [Compound 98, (S)-N,N,3-trimethyl-4-(5-(2-methylbenzo[d]oxazol-6-yl)-4-(tetrahydrofuran-3-yloxy)-7H-pyrrolo[2,3-d]pyrimidin-2-ylamino)benzamide] | 103 | 104
20 | CNC(=O)c1ccc(-c2c[nH]c3nc(Nc4ccc(C(=O)NC)cc4Cl)nc(OC4CCOCC4)c23)cc1 [Compound 421, 3-chloro-N-methyl-4-(5-(4-(methylcarbamoyl)phenyl)-4-(tetrahydro-2H-pyran-4-yloxy)-7H-pyrrolo[2,3-d]pyrimidin-2-ylamino)benzamide] | 99 | 101
21 | CNC(=O)c1ccc(Nc2nc(O[C@H]3CCOC3)c3c(-c4ccc5nc(C)oc5c4)c[nH]c3n2)c(C)c1 [Compound 133, (S)-N,3-dimethyl-4-(5-(2-methylbenzo[d]oxazol-6-yl)-4-(tetrahydrofuran-3-yloxy)-7H-pyrrolo[2,3-d]pyrimidin-2-ylamino)benzamide] | 104 | 101
22 | CC[C@H](C)Oc1nc(Nc2ccc(C(=O)NC)cc2OC)nc2[nH]cc(-c3ccc4nc(C)oc4c3)c12 [Compound 204, (S)-4-(4-sec-butoxy-5-(2-methylbenzo[d]oxazol-6-yl)-7H-pyrrolo[2,3-d]pyrimidin-2-ylamino)-3-methoxy-N-methylbenzamide] | 98 | 99
23 | CNC(=O)c1ccc(Nc2nc(OC3CCC3)c3c(-c4ccc5nc(C)oc5c4)c[nH]c3n2)c(OC)c1 [Compound 198, 4-(4-cyclobutoxy-5-(2-methylbenzo[d]oxazol-6-yl)-7H-pyrrolo[2,3-d]pyrimidin-2-ylamino)-3-methoxy-N-methylbenzamide] | 93 | 100
24 | COc1cc(C(=O)N[C@H](C)CO)ccc1Nc1nc(OC2CCCC2)c2c(-c3ccc4nc(C)oc4c3)c[nH]c2n1 [Compound 214, (R)-4-(4-(cyclopentyloxy)-5-(2-methylbenzo[d]oxazol-6-yl)-7H-pyrrolo[2,3-d]pyrimidin-2-ylamino)-N-(1-hydroxypropan-2-yl)-3-methoxybenzamide] | 97 | 100
25 | CNC(=O)c1ccc(Nc2nc(OC3CCOCC3)c3c(-c4ccc(-c5nc(C)c[nH]5)cc4)c[nH]c3n2)c(OC)c1 [Compound 207, 3-methoxy-N-methyl-4-(5-(4-(4-methyl-1H-imidazol-2-yl)phenyl)-4-(tetrahydro-2H-pyran-4-yloxy)-7H-pyrrolo[2,3-d]pyrimidin-2-ylamino)benzamide] | 99 | 99
26 | CNC(=O)c1ccc(Nc2nc(NC(C)C)c3c(-c4ccc5nc(C)oc5c4)c[nH]c3n2)c(OC)c1 [Compound 202, 4-(4-(isopropylamino)-5-(2-methylbenzo[d]oxazol-6-yl)-7H-pyrrolo[2,3-d]pyrimidin-2-ylamino)-3-methoxy-N-methylbenzamide] | 99 | 99
27 | CNC(=O)c1ccc(Nc2nc(OC3CCCC3)c3c(-c4cccnc4)c[nH]c3n2)c(OC)c1 [Compound 58, 4-(4-(cyclopentyloxy)-5-(pyridin-3-yl)-7H-pyrrolo[2,3-d]pyrimidin-2-ylamino)-3-methoxy-N-methylbenzamide] | 96 | 103
